Source: US10597370B2, “2-(benzothiazol-2-yl)-2-cyano-acetamide derivatives and their use as endothelial lipase inhibitors” (BRISTOL-MYERS SQUIBB COMPANY, priority 2016, dated 2020)

Biological target: T1, Endothelial lipase (EL) (Homo sapiens, UniProt Q9Y5X9)
T1 construct: transformed by RAGE technology (Athersys) to overexpress endogenous EL; endogenous in cells; the conditioned medium served as the enzyme source
T1 sequence (Q9Y5X9 21-500): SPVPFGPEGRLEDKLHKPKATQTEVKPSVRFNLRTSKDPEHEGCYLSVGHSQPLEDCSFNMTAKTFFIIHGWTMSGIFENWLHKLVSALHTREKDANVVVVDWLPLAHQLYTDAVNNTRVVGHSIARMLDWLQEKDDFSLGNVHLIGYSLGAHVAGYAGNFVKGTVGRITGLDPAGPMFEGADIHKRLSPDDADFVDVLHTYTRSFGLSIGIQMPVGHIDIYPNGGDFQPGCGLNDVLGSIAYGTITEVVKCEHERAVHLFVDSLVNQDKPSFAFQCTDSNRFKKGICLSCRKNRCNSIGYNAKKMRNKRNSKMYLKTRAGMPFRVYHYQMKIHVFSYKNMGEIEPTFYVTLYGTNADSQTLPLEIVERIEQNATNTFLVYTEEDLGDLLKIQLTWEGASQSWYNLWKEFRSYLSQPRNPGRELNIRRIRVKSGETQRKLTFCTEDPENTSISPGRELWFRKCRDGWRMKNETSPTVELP
Test: Endothelial lipase (EL) enzymatic assay with fluorescent substrate A10070 in DMPG vesicles
Type: biochemical
Conditions: conditioned media from HT-1080 cells overexpressing endogenous EL; 20 min preincubation at 37° C.
Description: Endothelial lipase activity was measured using a fluorescent substrate, A10070, (Invitrogen, CA) doped into an artificial vesicle containing DMPG (Avanti Polar Lipids) as the excipient. Vesicles were prepared by combining 285 μL of 1 mM DMPG in a 1:1 mixture of MeOH and CHCl3 with 15 μL of 1 mM A10070 in a 1:1 mixture of MeOH and CHCl3. The mixture was dried under nitrogen and resuspended in 150 μL of 50 mM HEPES pH 8.0 buffer containing 100 mM NaCl and 0.2 mM EDTA. The sample was allowed to sit at rt for 15 min and then was sonicated 3×4 mins on ice with a Branson Sonicator using duty cycle 1. This preparation provides vesicles with a mole fraction of 0.05 for the FRET substrate.
The enzymatic assay was measured using white, opaque 96-well half area plates. Each well contained 60 μL of assay buffer (50 mM HEPES pH 8.0, 50 mM NaCl and 1 mM CaCl2) and 2 ul of a DMSO solution containing compound of interest. Conditioned media obtained from HT-1080 cells, which were transformed by RAGE technology (Athersys) to overexpress endogenous EL, was added and the reaction was allowed to incubate for 20 min at 37° C. with gentle agitation. The reaction was started by the addition of 20 μL of a 1:4 dilution of vesicles. The final total reaction volume was 100 μL. The reaction rates were measured on a Gemini plate reader with an excitation wavelength of 488 nm and an emission of 530 nm. Readings were taken every 20 seconds for 10 min with agitation between each reading. The slope of the linear portion of the readout was used to calculate the rate of the reaction.

Row | IC50 | Structure (SMILES)
1 | < 1 nM | N#CC(C(=O)NCC(=O)NC1CC1)c1nc2cc(-c3ccc(C(N)=O)cc3)c(F)cc2s1 (stereo not drawn) [Example 28, 4-{2-[cyano ({[(cyclopropyl-carbamoyl)methyl]carbamoyl})methyl]-6-fluoro-1,3-benzothiazol-5-yl}benzamide]
2 | 259 nM | N#CC(C(=O)NCC(=O)NC1CC1)c1nc2ccc(-c3ccc4c(c3)C(=O)NC4)cc2s1 (stereo not drawn) [Example 6, 2-cyano-N-[(cyclopropyl-carbamoyl)methyl]-2-[6-(3-oxo-2,3-dihydro-1H-isoindol-5-yl)-1,3-benzothiazol-2-yl] acetamide]
3 | 1 nM | CN1CCN(C(=O)c2cccc(-c3cc4nc(C(C#N)C(=O)NCC(=O)NC5CC5)sc4cc3F)c2)CC1 (stereo not drawn) [Example 29, 2-cyano-N-[(cyclopropyl-carbamoyl)methyl]-2-{6-fluoro-5-[3-(4-methylpiperazine-1-carbonyl)phenyl]-1,3-benzothiazol-2-yl}acetamide]
4 | 238 nM | CN(C)C(=O)c1ccc(-c2ccc3nc(C(C#N)C(=O)NCC(=O)NC4CC4)sc3c2)cc1F (stereo not drawn) [Example 3, 4-{2-[cyano ({[(cyclopropyl-carbamoyl)methyl]carbamoyl})methyl]-1,3-benzothiazol-6-yl}-2-fluoro-N,N-dimethyl-benzamide]
5 | 16 nM | N#CC(C(=O)NCC(=O)NC1CC1)c1nc2ccc(-c3cccc(C(=O)N4CCCCC4)c3)cc2s1 (stereo not drawn) [Example 5, 2-cyano-N-[(cyclopropyl-carbamoyl)methyl]-2-{6-[3-(piperidine-1-carbonyl)phenyl]-1,3-benzothiazol-2-yl}acetamide]
6 | 13 nM | N#CC(C(=O)NCC(=O)NC1CC1)c1nc2ncc(-c3ccccc3)cc2s1 (stereo not drawn) [Example 21, 2-cyano-N-(2-(cyclopropylamino)-2-oxoethyl)-2-(6-phenylthiazolo[4,5-b]pyridin-2-yl)acetamide]
7 | 3140 nM | CN1CCN(C(=O)c2ccc(-c3ccc4nc(C(C#N)C(=O)NCC(=O)NC5CCC5)sc4c3)cc2)CC1 (stereo not drawn) [Example 19, 2-cyano-N-[(cyclobutyl-carbamoyl)methyl]-2-{6-[4-(4-methyl-piperazine-1-carbonyl)phenyl]-1,3-benzothiazol-2-yl} acetamide]
8 | 16 nM | COCCNC(=O)c1ccc(-c2ccc3nc(C(C#N)C(=O)NCC(=O)NC4CC4)sc3c2)cc1 (stereo not drawn) [Example 12, 4-{2-[cyano ({[(cyclopropyl-carbamoyl)methyl]carbamoyl})methyl]-1,3-benzothiazol-6-yl}-N-(2-methoxyethyl) benzamide]
9 | > 10000 nM | Cn1ccc(-c2ccc3nc(C(C#N)C(=O)NCC(=O)NC4CC4)sc3c2)cc1=O (stereo not drawn) [Example 4, 2-cyano-N-[(cyclopropyl-carbamoyl)methyl]-2-[6-(1-methyl-2-oxo-1,2-dihydropyridin-4-yl)-1,3-benzothiazol-2-yl] acetamide]
10 | 172 nM | N#CC(C(=O)NCC(=O)NC1CC1)c1nc2ccc(-c3ccc(F)nc3)cc2s1 (stereo not drawn) [Example 16, 2-cyano-N-[(cyclopropyl-carbamoyl)methyl]-2-[6-(6-fluoropyridin-3-yl)-1,3-benzothiazol-2-yl] acetamide]
11 | 67 nM | N#CC(C(=O)NCC(=O)NC1COC1)c1nc2ccc(-c3ccc(F)nc3)cc2s1 (stereo not drawn) [Example 17, 2-cyano-2-[6-(6-fluoropyridin-3-yl)-1,3-benzothiazol-2-yl]-N-{[(oxetan-3-yl)carbamoyl]methyl} acetamide]
12 | 130 nM | CN1CCN(C(=O)c2ccc(-c3ccc4nc(C(C#N)C(=O)NCC(=O)NC5CC5)sc4c3)cc2)CC1 (stereo not drawn) [Example 20, 2-cyano-N-[(cyclopropyl-carbamoyl)methyl]-2-{6-[4-(4-methyl-piperazine-1-carbonyl)phenyl]-1,3-benzothiazol-2-yl} acetamide]
13 | 1320 nM | N#CC(C(=O)NCC(=O)N1CCCC1)c1nc2ccc(-c3ccccc3)cc2s1 (stereo not drawn) [Example 18, 2-cyano-N-[2-oxo-2-(pyrrolidin-1-yl)ethyl]-2-(6-pheny1-1,3-benzothiazol-2-yl)acetamide]
14 | 15 nM | N#CC(C(=O)NCC(=O)NC1CC1)c1nc2ccc(-c3ccc(C(=O)N4CCC4)cc3)cc2s1 (stereo not drawn) [Example 7, 2-{6-[4-(azetidine-1-carbonyl)phenyl]-1,3-benzothiazol-2-yl}-2-cyano-N-[(cyclopropyl-carbamoyl)methyl] acetamide]
15 | 26 nM | N#CC(C(=O)NCC(=O)NC1CC1)c1nc2ccc(-c3ccc(C(N)=O)cc3)cc2s1 (stereo not drawn) [Example 11, 4-{2-[cyano ({[(cyclopropyl-carbamoyl)methyl]carbamoyl})methyl]-1,3-benzothiazol-6-yl} benzamide]
16 | 399 nM | N#CC(C(=O)NCC(=O)NC1CC1)c1nc2ccc(-c3cccc(C(N)=O)c3)cc2s1 (stereo not drawn) [Example 9, 3-{2-[cyano ({[(cyclopropyl-carbamoyl)methyl]carbamoyl})methyl]-1,3-benzothiazol-6-yl} benzamide]
17 | 13 nM | N#CC(C(=O)NCC(=O)NC1CC1)c1nc2cc(-c3ccccc3)c(F)cc2s1 (stereo not drawn) [Example 27, 2-cyano-N-[(cyclopropyl-carbamoyl)methyl]-2-(6-fluoro-5-phenyl-1,3-benzothiazol-2-yl)acetamide]
18 | 18 nM | N#CC(C(=O)NCC(=O)NC1CC1)c1nc2ccc(-c3cccc(C(=O)N4CCOCC4)c3)cc2s1 (stereo not drawn) [Example 10, 2-cyano-N-[(cyclopropyl-carbamoyl)methyl]-2-{6-[3-(morpholine-4-carbonyl)phenyl]-1,3-benzothiazol-2-yl]acetamide]
19 | 40 nM | COCCNC(=O)c1ccc(-c2cnc3nc(C(C#N)C(=O)NCC(=O)NC4CC4)sc3c2)cc1 (stereo not drawn) [Example 25, 4-{2-[cyano({[(cyclopropyl-carbamoyl)methyl]carbamoyl})methyl]-[1,3]thiazolo[4,5-b]pyridin-6-yl}-N-(2-methoxyethyl) benzamide]
20 | 398 nM | CN(C)C(=O)c1cccc(-c2ccc3nc(C(C#N)C(=O)NCC(=O)NC4CC4)sc3c2)c1 (stereo not drawn) [Example 2, 3-{2-[cyano ({[(cyclopropyl-carbamoyl)methyl]carbamoyl})methyl]-1,3-benzothiazol-6-yl}-N,N-dimethyl-benzamide]
21 | 1.4 nM | N#CC(C(=O)NCC(=O)NC1CC1)c1nc2ccc(-c3ccc(NC(=O)OCc4ccccc4)cc3)cc2s1 (stereo not drawn) [Example 15, benzyl N-(4-{2-[cyano ({[(cyclopropyl-carbamoyl)methyl]carbamoyl})methyl]-1,3-benzothiazol-6-yl}phenyl) carbamate]
22 | 22 nM | N#CC(C(=O)NCC(=O)NC1CC1)c1nc2ncc(-c3cccc(C(=O)N4CCOCC4)c3)cc2s1 (stereo not drawn) [Example 22, 2-cyano-N-[(cyclopropyl-carbamoyl)methyl]-2-{6-[3-(morpholine-4-carbonyl)phenyl]-[1,3]thiazolo[4,5-b]pyridin-2-yl}acetamide]
23 | 31 nM | N#CC(C(=O)NCC(=O)NC1CC1)c1nc2ncc(-c3ccc(C(N)=O)cc3)cc2s1 (stereo not drawn) [Example 24, 4-{2-[cyano({[(cyclopropyl-carbamoyl)methyl]carbamoyl})methyl]-[1,3]thiazolo[4,5-b]pyridin-6-yl}benzamide]
24 | 33 nM | CN1CCN(C(=O)c2ccc(-c3cnc4nc(C(C#N)C(=O)NCC(=O)NC5CC5)sc4c3)cc2)CC1 (stereo not drawn) [Example 23, 2-cyano-N-[(cyclopropyl-carbamoyl)methyl]-2-{6-[4-(4-methylpiperazine-1-carbonyl)phenyl]-[1,3]thiazolo[4,5-6]pyridin-2-yl}acetamide]
25 | 13 nM | N#CC(C(=O)NCC(=O)NC1CC1)c1nc2ccc(-c3ccccc3)cc2s1 (stereo not drawn) [Example 1, 2-cyano-N-(2-(cyclopropylamino)-2-oxoethyl)-2-(6-phenylbenzo[d]thiazol-2-yl)acetamide]
26 | 21 nM | N#CC(C(=O)NCC(=O)NC1CC1)c1nc2cc(-c3cccc(C(N)=O)c3)c(F)cc2s1 (stereo not drawn) [Example 26, 3-{2-[cyano({[(cyclopropylcarbamoyl)methyl]carbamoyl})methyl]-6-fluoro-1,3-benzothiazol-5-yl}benzamide]
27 | 5 nM | N#CC(C(=O)NCC(=O)NC1CC1)c1nc2ccc(-c3ccc4c(c3)CNC4=O)cc2s1 (stereo not drawn) [Example 8, 2-cyano-N-[(cyclopropyl-carbamoyl)methyl]-2-[6-(1-oxo-2,3-dihydro-1H-isoindol-5-yl)-1,3-benzothiazol-2-yl]acetamide]
